Reference: ChEMBL document CHEMBL3045835, “Comparative study of conventional and microwave-assisted synthesis of some Schiff bases and their potential as antimicrobial agents” (2012)
≈ marks a conversion by molar mass, not a printed value.

Legend:
Format in all cases: functional
Bacillus pumilus [1] = test: Antibacterial activity against Bacillus pumilus MTCC 1456 at 100 ug/ml after 18 hr by cup-plate method; settings: MTCC 1456, 18 h, read-out: DIZ
Pseudomonas aeruginosa [2] = test: Antibacterial activity against Pseudomonas aeruginosa MTCC 424 at 500 ug/ml after 18 hr by cup-plate method; settings: MTCC 424, 18 h, read-out: DIZ
Pseudomonas fluorescens [3] = test: Antibacterial activity against Pseudomonas fluorescens MTCC 2421 after 24 hr by broth dilution method; settings: MTCC 2421, 24 h
Bacillus subtilis [4] = test: Antibacterial activity against Bacillus subtilis MTCC 441 at 500 ug/ml after 18 hr by cup plate method; settings: MTCC 441, 18 h, read-out: DIZ
Bacillus pumilus [5] = test: Antibacterial activity against Bacillus pumilus MTCC 1456 at 500 ug/ml after 18 hr by cup-plate method; settings: MTCC 1456, 18 h, read-out: DIZ
Penicillium chrysogenum [6] = test: Antifungal activity against Penicillium chrysogenum MTCC 161 after 24 hr by broth dilution method; settings: MTCC 161, 24 h
Staphylococcus aureus [7] = test: Antibacterial activity against Staphylococcus aureus MTCC 1430 at 200 ug/ml after 18 hr by cup-plate method; settings: MTCC 1430, 18 h, read-out: DIZ
Micrococcus luteus [8] = test: Antibacterial activity against Micrococcus luteus MTCC 1538 after 24 hr by broth dilution method; settings: MTCC 1538, 24 h
Penicillium chrysogenum [9] = test: Antifungal activity against Penicillium chrysogenum MTCC 161 at 1000 ug/ml after 18 hr by cup-plate method; settings: MTCC 161, 18 h, read-out: DIZ
Staphylococcus aureus [10] = test: Antibacterial activity against Staphylococcus aureus MTCC 1430 at 100 ug/ml after 18 hr by cup-plate method; settings: MTCC 1430, 18 h, read-out: DIZ
Micrococcus luteus [11] = test: Antibacterial activity against Micrococcus luteus MTCC 1538 at 200 ug/ml after 18 hr by cup-plate method; settings: MTCC 1538, 18 h, read-out: DIZ
Bacillus subtilis [12] = test: Antibacterial activity against Bacillus subtilis MTCC 441 at 100 ug/ml after 18 hr by cup plate method; settings: MTCC 441, 18 h, read-out: DIZ
Pseudomonas fluorescens [13] = test: Antibacterial activity against Pseudomonas fluorescens MTCC 2421 at 1500 ug/ml after 18 hr by cup-plate method; settings: MTCC 2421, 18 h, read-out: DIZ
Pseudomonas aeruginosa [14] = test: Antibacterial activity against Pseudomonas aeruginosa MTCC 424 after 24 hr by broth dilution method; settings: MTCC 424, 24 h
Micrococcus luteus [15] = test: Antibacterial activity against Micrococcus luteus MTCC 1538 at 100 ug/ml after 18 hr by cup-plate method; settings: MTCC 1538, 18 h, read-out: DIZ
Aspergillus niger [16] = test: Antifungal activity against Aspergillus niger MTCC 2546 after 24 hr by broth dilution method; settings: MTCC 2546, 24 h
Escherichia coli [17] = test: Antibacterial activity against Escherichia coli MTCC 1573 at 1000 ug/ml after 18 hr by cup-plate method; settings: MTCC 1573, 18 h, read-out: DIZ
Staphylococcus aureus [18] = test: Antibacterial activity against Staphylococcus aureus MTCC 1430 at 500 ug/ml after 18 hr by cup-plate method; settings: MTCC 1430, 18 h, read-out: DIZ
Staphylococcus aureus [19] = test: Antibacterial activity against Staphylococcus aureus MTCC 1430 at 1000 ug/ml after 18 hr by cup-plate method; settings: MTCC 1430, 18 h, read-out: DIZ
Aspergillus niger [20] = test: Antifungal activity against Aspergillus niger MTCC 2546 at 1500 ug/ml after 18 hr by cup-plate method; settings: MTCC 2546, 18 h, read-out: DIZ
Pseudomonas fluorescens [21] = test: Antibacterial activity against Pseudomonas fluorescens MTCC 2421 at 1000 ug/ml after 18 hr by cup-plate method; settings: MTCC 2421, 18 h, read-out: DIZ
Escherichia coli [22] = test: Antibacterial activity against Escherichia coli MTCC 1573 at 100 ug/ml after 18 hr by cup-plate method; settings: MTCC 1573, 18 h, read-out: DIZ
Penicillium chrysogenum [23] = test: Antifungal activity against Penicillium chrysogenum MTCC 161 at 200 ug/ml after 18 hr by cup-plate method; settings: MTCC 161, 18 h, read-out: DIZ
Micrococcus luteus [24] = test: Antibacterial activity against Micrococcus luteus MTCC 1538 at 500 ug/ml after 18 hr by cup-plate method; settings: MTCC 1538, 18 h, read-out: DIZ
Bacillus pumilus [25] = test: Antibacterial activity against Bacillus pumilus MTCC 1456 after 24 hr by broth dilution method; settings: MTCC 1456, 24 h
Pseudomonas aeruginosa [26] = test: Antibacterial activity against Pseudomonas aeruginosa MTCC 424 at 200 ug/ml after 18 hr by cup-plate method; settings: MTCC 424, 18 h, read-out: DIZ
Aspergillus niger [27] = test: Antifungal activity against Aspergillus niger MTCC 2546 at 1000 ug/ml after 18 hr by cup-plate method; settings: MTCC 2546, 18 h, read-out: DIZ

Cc1cccnc1/N=C/c1cccc2ccccc12
zone of inhibition at 100 µg/mL (Bacillus pumilus [1]): 13 mm | zone of inhibition at 500 µg/mL (Pseudomonas aeruginosa [2]): 14 mm | MIC (Pseudomonas fluorescens [3]): 300 µg/mL (≈ 1220 µM) | zone of inhibition at 500 µg/mL (Bacillus subtilis [4]): 16 mm | zone of inhibition at 500 µg/mL (Bacillus pumilus [5]): 18 mm | MIC (Penicillium chrysogenum [6]): 400 µg/mL (≈ 1620 µM) | zone of inhibition at 200 µg/mL (Staphylococcus aureus [7]): 13 mm | MIC (Micrococcus luteus [8]): 200 µg/mL (≈ 812 µM) | zone of inhibition at 1000 µg/mL (Penicillium chrysogenum [9]): 17 mm | zone of inhibition at 100 µg/mL (Staphylococcus aureus [10]): 10 mm | zone of inhibition at 200 µg/mL (Micrococcus luteus [11]): 18 mm | zone of inhibition at 100 µg/mL (Bacillus subtilis [12]): 12 mm | zone of inhibition at 1500 µg/mL (Pseudomonas fluorescens [13]): 24 mm | MIC (Pseudomonas aeruginosa [14]): 300 µg/mL (≈ 1220 µM) | zone of inhibition at 100 µg/mL (Micrococcus luteus [15]): 16 mm | MIC (Aspergillus niger [16]): 200 µg/mL (≈ 812 µM) | zone of inhibition at 1000 µg/mL (Escherichia coli [17]): 16 mm | zone of inhibition at 500 µg/mL (Staphylococcus aureus [18]): 15 mm | zone of inhibition at 1000 µg/mL (Staphylococcus aureus [19]): 18 mm | zone of inhibition at 1500 µg/mL (Aspergillus niger [20]): 21 mm | zone of inhibition at 1000 µg/mL (Pseudomonas fluorescens [21]): 23 mm | zone of inhibition at 100 µg/mL (Escherichia coli [22]): 13 mm | zone of inhibition at 200 µg/mL (Penicillium chrysogenum [23]): 13 mm | zone of inhibition at 500 µg/mL (Micrococcus luteus [24]): 22 mm | MIC (Bacillus pumilus [25]): 200 µg/mL (≈ 812 µM) | zone of inhibition at 200 µg/mL (Pseudomonas aeruginosa [26]): 13 mm | zone of inhibition at 1000 µg/mL (Aspergillus niger [27]): 20 mm
